Blank lines part the entries; values can stand above or below the compound they belong to. The source made the active and inactive calls.
Experiments:
Troponin, cardiac muscle = Troponin, cardiac muscle (Homo sapiens, UniProt P19429+P45379+P63316); assay: inhibitors of cardiac thin filament calcium sensitivity, dose response, biochemical, fluorescence, cardiac regulated thin filaments, triplicate IC50 (AID 504742); type: protein-complex assay
HepG2 = assay: HepG2 cell cytotoxicity, dose response, cytotoxicity control, cherry-picks, set 2 (AID 687002); type: functional, cell-based; details: Homo sapiens
[1] = target: T1, DNA repair and recombination protein RAD54-like (Homo sapiens, UniProt Q92698); assay: inhibitors of human RAD54 branch migration, confirmation, biochemical, fluorescence, cherry-picked samples, dose series (AID 651657); type: functional
T1 sequence (Q92698 whole entry): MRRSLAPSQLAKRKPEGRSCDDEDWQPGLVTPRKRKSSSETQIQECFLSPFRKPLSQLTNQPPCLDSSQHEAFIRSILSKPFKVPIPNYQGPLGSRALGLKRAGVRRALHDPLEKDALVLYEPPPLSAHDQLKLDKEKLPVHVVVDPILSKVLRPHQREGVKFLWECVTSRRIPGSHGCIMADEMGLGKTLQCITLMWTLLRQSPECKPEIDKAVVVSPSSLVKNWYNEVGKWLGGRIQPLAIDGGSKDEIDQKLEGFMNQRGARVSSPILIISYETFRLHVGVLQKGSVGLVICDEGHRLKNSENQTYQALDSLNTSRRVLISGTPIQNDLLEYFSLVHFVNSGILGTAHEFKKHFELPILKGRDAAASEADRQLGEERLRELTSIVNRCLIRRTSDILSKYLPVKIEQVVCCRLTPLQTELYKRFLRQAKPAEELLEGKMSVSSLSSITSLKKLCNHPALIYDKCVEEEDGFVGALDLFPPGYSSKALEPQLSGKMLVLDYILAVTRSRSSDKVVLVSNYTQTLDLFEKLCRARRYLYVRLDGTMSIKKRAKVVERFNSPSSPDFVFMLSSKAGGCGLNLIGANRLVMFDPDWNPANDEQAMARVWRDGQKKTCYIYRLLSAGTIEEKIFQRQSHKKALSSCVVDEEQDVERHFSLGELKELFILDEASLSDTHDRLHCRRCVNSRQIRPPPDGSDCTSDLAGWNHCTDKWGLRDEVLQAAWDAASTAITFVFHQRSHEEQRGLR

[2] = target: T2, Type-1 angiotensin II receptor (Homo sapiens, UniProt P30556); assay: AT1 receptor antagonists, dose response, selectivity assay for APJ receptor antagonist project, cell-based, uHTS hits (AID 463214); type: functional;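 further: antagonist potency against angiotensin II stimulated AT1 response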
T2 sequence (P30556 whole entry): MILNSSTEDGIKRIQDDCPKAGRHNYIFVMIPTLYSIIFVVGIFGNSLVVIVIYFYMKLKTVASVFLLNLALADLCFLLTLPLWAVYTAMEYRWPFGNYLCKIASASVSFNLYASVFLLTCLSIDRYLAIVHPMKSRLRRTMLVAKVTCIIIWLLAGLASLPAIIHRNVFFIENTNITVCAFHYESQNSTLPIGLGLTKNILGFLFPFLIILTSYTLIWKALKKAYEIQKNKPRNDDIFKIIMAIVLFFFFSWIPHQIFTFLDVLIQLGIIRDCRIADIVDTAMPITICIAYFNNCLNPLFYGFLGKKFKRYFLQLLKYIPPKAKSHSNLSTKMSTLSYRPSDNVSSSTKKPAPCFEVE

[3] = target: T3, Dual specificity protein phosphatase 6 (Rattus norvegicus, UniProt Q64346); assay: MKP-3 phosphatase inhibitors, primary screen, biochemical, rat enzyme, in vitro (AID 425)
T3 sequence (Q64346 whole entry): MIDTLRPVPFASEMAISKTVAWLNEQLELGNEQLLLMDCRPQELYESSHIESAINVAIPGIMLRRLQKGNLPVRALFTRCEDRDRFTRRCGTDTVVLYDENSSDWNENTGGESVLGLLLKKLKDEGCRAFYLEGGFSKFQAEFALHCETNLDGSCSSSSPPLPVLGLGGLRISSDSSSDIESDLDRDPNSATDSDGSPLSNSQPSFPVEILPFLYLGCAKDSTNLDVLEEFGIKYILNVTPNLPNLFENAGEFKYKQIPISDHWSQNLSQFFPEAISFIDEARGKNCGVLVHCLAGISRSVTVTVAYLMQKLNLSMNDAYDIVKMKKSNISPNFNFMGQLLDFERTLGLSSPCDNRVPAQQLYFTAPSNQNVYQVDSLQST

[4] = target: T4, Sentrin-specific protease 7 (Homo sapiens, UniProt Q9BQF6); type: functional;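 further: Luminescence-based dose-response confirmation of ultra-high-throughput screening hits, measuring inhibition of SENP7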
T4 sequence (Q9BQF6 whole entry): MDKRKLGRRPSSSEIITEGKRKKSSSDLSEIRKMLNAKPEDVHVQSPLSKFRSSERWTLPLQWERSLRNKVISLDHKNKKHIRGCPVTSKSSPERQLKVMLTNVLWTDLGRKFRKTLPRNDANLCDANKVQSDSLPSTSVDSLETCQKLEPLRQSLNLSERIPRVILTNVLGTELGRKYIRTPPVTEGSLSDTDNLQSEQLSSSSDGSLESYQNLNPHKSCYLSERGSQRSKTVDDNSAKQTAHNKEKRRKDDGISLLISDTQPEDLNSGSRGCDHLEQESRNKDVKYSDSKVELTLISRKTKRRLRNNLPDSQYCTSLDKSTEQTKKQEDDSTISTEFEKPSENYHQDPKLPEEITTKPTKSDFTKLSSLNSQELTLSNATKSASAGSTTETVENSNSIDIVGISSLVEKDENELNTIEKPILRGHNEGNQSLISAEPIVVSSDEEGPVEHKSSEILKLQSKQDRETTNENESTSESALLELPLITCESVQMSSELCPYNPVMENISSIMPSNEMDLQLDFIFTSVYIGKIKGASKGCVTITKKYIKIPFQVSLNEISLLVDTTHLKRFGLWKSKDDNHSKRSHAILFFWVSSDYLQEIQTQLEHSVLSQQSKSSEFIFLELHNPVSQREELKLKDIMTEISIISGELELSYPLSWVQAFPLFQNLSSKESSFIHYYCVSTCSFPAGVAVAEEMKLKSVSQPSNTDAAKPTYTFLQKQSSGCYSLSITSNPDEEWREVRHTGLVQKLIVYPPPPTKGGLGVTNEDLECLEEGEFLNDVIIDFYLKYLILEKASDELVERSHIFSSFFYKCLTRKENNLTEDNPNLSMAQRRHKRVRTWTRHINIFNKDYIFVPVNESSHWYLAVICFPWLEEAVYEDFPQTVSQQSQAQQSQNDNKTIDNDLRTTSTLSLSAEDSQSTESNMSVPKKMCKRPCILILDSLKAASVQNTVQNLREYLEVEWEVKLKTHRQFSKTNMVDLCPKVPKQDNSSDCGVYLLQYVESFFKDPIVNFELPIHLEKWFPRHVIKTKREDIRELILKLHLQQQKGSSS

Compound: COc1cc(-c2nnc(SCc3cc(=O)oc4cc(O)c(O)cc34)o2)cc(OC)c1OC
IC50 (Troponin, cardiac muscle): > 2.65 µM (active)

Compound: CCOC(=O)c1c(-c2ccc(-c3ccccc3)cc2)csc1NC(=O)CNCCN(C)C
AC50 (HepG2): 18.4 µM (active)
AC50 [1]: 68 µM (active)
IC50 [2]: 9.33 µM (active)

IC50 [3]: 96.9 µM (active)
IC50 [4]: 3.69 µM (active)
Compound: N#Cc1c(NC(=O)c2ccc(Br)o2)n(-c2ccccc2)c2nc3ccccc3nc12

Reference: ChEMBL document CHEMBL1201862, “PubChem BioAssay data set” (2004)
